Where “and” joins values, the source holds several entries; their conditions need not be identical. Equal entries are not always repeated. Entries after “also recorded” stand apart in the source; their conditions may differ.
How the values were obtained:
[1] = UV/vis absorption and emission spectra (Stokes shift); assay type: physicochemical
Protocol: (§1) Absorption spectra and spectrophotometric titrations were acquired with a Specord 210 Plus spectrometer (Analytik Jena), using dilute solutions with an absorbance of about 0.1 at the absorption maximum. The binding constants were assessed with BindFit v0.5 software. Fluorescence spectra and titrations were carried out on a FluoroMax 4 spectrofluorometer (Horiba Jobin-Yvon).
Normalized UV/vis absorption and emission (λex=465 nm) spectra at a fixed concentration of thiourea-based compound 19 were recorded in CHCl3, toluene, acetonitrile (MeCN) and methanol (MeOH), yielding Stokes shifts between 160 nm and 230 nm, respectively. This positive solvatochromism is ascribed to the effective intramolecular charge transfer from the two electron-donating groups (thiourea and tertiary amine) to the electron-accepting benzodiazole as the solvent polarity increases (FIG. 1-4). […]
Normalized UV/vis absorption and emission spectra of guanidinium-based compound 25 at a fixed concentration were recorded in CHCl3 and MeCN. Sizable Stokes shifts of 180 nm and 210 nm were observed (FIGS. 8 and 9) as a result of the effective intramolecular charge transfer process established from the two electron-donating groups (guanidinium and tertiary amine) to the electron-accepting benzodiazole in solvents of different polarity.

[2] = Spectroscopic titration of compound 19 with ENOX-TBA in MeCN; assay type: binding
Protocol: as §1
This example illustrates the titration of the thiourea-based compound 19 with the ammonium salt of the antibiotic enoxacin (ENOX-TBA) in MeCN. […] The bathochromic shift of the absorption band upon binding can be rationalized considering that the donor-acceptor interaction between the thiourea and benzoxadiazole is reinforced with the charge donation of the electron-rich carboxylate anion to the thiourea through such supramolecular interactions. […] The estimated binding constant for this interaction was calculated to be K19/ENOX-TBA=[…] in MeCN.

[3] = Solubility in polar solvents; assay type: physicochemical; settings: polar organic solvents and solvent/water mixtures
[4] = Spectroscopic titration of compound 25 with TBA-OAc; assay type: binding; settings: for change of UV/vis absorption band upon titration with TBA-OAc / change of fluorescence emission upon titration with TBA-OAc: c[25]=9×10^−6 M
Protocol: as §1
The bathochromic shift of the absorption band upon binding can be rationalized considering that the donor-acceptor interaction between the guanidinium and the benzoxadiazole is reinforced by a charge donation of the electron-rich acetate anion to the guanidinium.

absorption band position ([1]; in MeCN) [nm] | Stokes shift ([1]; in acetonitrile (MeCN)) | Stokes shift ([1]; in chloroform (CHCl3)) | Stokes shift ([1]; in methanol (MeOH)) [nm] | Stokes shift ([1]; in toluene) [nm] | absorption band position ([1]; CHCl3 and MeCN) [nm] | SMILES | interaction with oxoanions (e.g. ENOX-TBA) [2] | change of UV/vis absorption band upon titration with ENOX-TBA ([2]; MeCN, c[19]=2.2×10^−5 M) | solubility [3] | change of UV/vis absorption band upon titration with TBA-OAc ([4]; CHCl3) | change of fluorescence emission upon titration with TBA-OAc ([4]; CHCl3) | change of UV/vis absorption band upon titration with TBA-OAc ([4]; MeCN) | change of fluorescence emission upon titration with TBA-OAc ([4]; MeCN) | interaction with oxoanions (e.g. TBA-OAc) ([4]; non-polar and polar solvents)
462 | > 180 nm | > 170 nm | > 230 | > 160 | – | C=C(C)C(=O)OCCN(C)c1ccc(NC(=S)NC(=O)c2ccccc2)c2nonc12 [Compound 19] | can interact | decrease and red shift | – | – | – | – | – | –
– | – | – | – | – | – | C=C(C)C(=O)OCCN(C)c1ccc(NC(=N)NC(=O)c2ccccc2)c2nonc12 [Compound 23, 2-((7-(3-benzoylguanidino)benzo[c][1,2,5]oxadiazol-4-yl)(methyl)amino)ethyl methacrylate] | – | – | soluble in polar organic solvents and polar organic solvent/water mixtures | – | – | – | – | –
– | 210 nm and > 210 nm | 180 nm and > 180 nm | – | – | 450 | C=C(C)C(=O)OCCN(C)c1ccc(NC(=N)NC(=O)c2ccccc2)c2nonc12.Cl [Compound 25, benzamido((7-((2-(methacrycrykoyloxy)ethyl)(methyl)amino)benzo[c][1,2,5]oxadiazol-4-yl)amino)methaniminium chloride] | – | – | – | decrease and a red shift | red shift and decrease; also recorded: quenching and a red shift; also recorded: decrease and red shift | decrease and a red shift | red shift and decrease; also recorded: quenching and a red shift; also recorded: decrease and red shift | can interact
